Results as given in patent US11065275B2, “Cross-linking agents and associated methods” (University of Utah Research Foundation, priority 2016, dated 2021).
Where two headings read alike, the source gives them in different places.

Tests used:
rabbits = conditions: 0.0025 mg/ml TID or QD
Method: Copper sulfate (CuSO4) solution was prepared at a concentration of 0.0025 mg/ml and administered three times a day (TID) or once a day (QD) to rabbits. An anterior segment evaluation was performed with slit-lamp biomicroscopy and Heidelberg Spectralis anterior segment optical coherence tomography (AS-OCT). Two rabbits (n=4 eyes) were sacrificed at each of day 1, week 1, week 4, and week 6 for copper levels in eye tissues and compared to control (no drops) rabbits. Aqueous humor, vitreous, retina, cornea, lens, and blood samples were analyzed for copper ions using inductively coupled plasma mass spectrometry (ICP-MS).
Rabbits (n=2) were sacrificed after 42 days by intravenous injection of 0.3 ml/kg euthanasia solution and the eyes were enucleated for histological evaluations and reading for signs of inflammation, tissue damage, scarring and fibrosis. The anterior section of the eyes were fixed in 10% formaldehyde-glutaraldehyde solution, dehydrated in a graded series of alcohol, embedded in paraffin, and sectioned with a microtome. The sections were stained with appropriate staining (hematoxylin and eosin and Masson Trichrome).

Human Keratoconus Cornea = conditions: corneas treated 1 week with 0.0016 mg/ml CuSO4 vs untreated, HPLC
Method: Each Human Keratoconus Cornea was bisected. One half was treated with 0.0016 mg/ml CuSo4 in Optisol solution for 1 week and other half was left untreated. After one week each cornea was kept in negative 80° C. for future analysis.
The cornea samples were washed with PBS pH 7.4 and powdered in liquid nitrogen and pulverized with a Freezer Mill. Cornea samples were demineralized with 0.5 M EDTA in 0.05 M Tris buffer, pH 7.4, for 48 h at 4° C. The insoluble fraction was washed twice with distilled water by centrifugation at 5000 g at […] for 20 min and lyophilized. The lyophilized sample was hydrolyzed with constantly boiling redistilled 6 N HCl in vacuo for 24 h at 110° C. The hydrolysate was neutralized with 2.5 N NaOH and dissolved in distilled water. Analyses were performed for Lysinonorleucine (LNL) and Histidinohydroxylysinonorleucine (HHL) separately by HPLC.
Amino acid analysis is an important application area in protein chemistry and food analysis. Many different applications exist in this field. Automated pre-column derivatization followed by reverse phase LC has become a useful procedure for efficient analysis, since it is an easy and simple to use technique. An Agilent 1290 Infinity LC System was used with automated pre-column derivatization for fast and sensitive analysis of Lysinonorleucine (LNL). The column used for this method is Agilent ZORBAX Eclipse Plus RRHD C18 (3.0 mm×50 mm, 1.8 μm) and Mobile phase consisted of Solvent A: 10 mM disodium phosphate+10 mM sodium tetraborate pH 8.2 and Solvent B: ACN/MeOH/H2O (45:45:10)
To […] of the protein hydrolysate sample (less than 3 mM as the total amino acid concentration), 50 μl of 1.5 mM Ne-methyl-L-lysine hydrochlo ide (Mly) in 0.26 M borate buffer, pH 9.5, and 50 μl of acetone were added in a 1.5-ml reaction vial. Then 25 μl of FMOC-Cl reagent (6 mM FMOC-Cl in acetone) was added and the mixture was allowed to react for 2 min at room temperature. The reaction mixture was extracted twice with […] of pentane to remove excess FMOC-Cl reagent. The aqueous phase was subjected to chromatography.
Cornea cross-linking is tissue specific. The predominant cross-links generated in the human cornea are lysinonorleucine (LNL). LNL are the building blocks for subsequent multivalent cross-links such as the histidinyl-hydroxylysinonorleucine (HHL). Normal and keratoconic human corneas were treated for 1 week with 0.0016 mg/ml CuSO4. Then, an HPLC analysis was performed to measure levels of LNL (FIGS. 2A-2C) and HHL (FIGS. 3A-3C).

lysyl oxidase (LOX) = conditions: 0.0016 mg/mL CuSO4 in BSS vs BSS control
Method: As a parallel assay, we added 500 uM aminopropionitrile (BAPN) which can diminish LOX activity completely. The fluorescence of oxidized Amplex red was recorded every 10 minutes using fluorescence plate reader.

[1] = test system: human cadaver corneas and rabbit corneas
Method: Cornea radial strain measurements were performed on human cadaver corneas and on rabbit corneas. Human cadaver corneas (n=2 pairs) were cultured as previously mentioned in Example 1. The treated group was immersed in 0.0016 mg/ml CuSO4 for 2 weeks. The samples also contained a small portion of sclera at both ends. Mineral oil was applied on the surface of the sclera-cornea-sclera strip to minimize tissue dehydration. Rabbit corneas were divided into 4 groups. Two groups were treatment groups receiving either CuSO4 0.0025 mg/ml three times per day or CuSO4 0.0025 mg/ml once per day. Two groups served as control receiving only BSS.
The sample was coupled between a motor and a transducer that applied a controlled pressure from 5-30 mmHg and measured the resultant radial strain. The sample length between the two gripping jaws was approximately 10 mm. Sample geometric information, including width and thickness, was input into the Rheometrics System Analyzer (RSA) control panel. Sample thickness was measured by an ultrasound pachymeter (DGH 550 Pa-chette2; DGH Technology, Exton, Pa.).

[2] = test system: cornea of New Zealand white rabbits; conditions: 0.0025 mg/ml once or three times per day, 0.025 mg/ml once per day; weekly for 5 weeks; mean K and at 3 mm
Method: Copper sulfate (CuSO4) at 0.0025 mg/ml was administered to New Zealand white rabbits at a dose of once per day and three times per day. Additionally, a high concentration sample of 0.025 mg/ml was administered to New Zealand with rabbits once per day during the treatment period. Three different controls were administered either no drops, BSS, or artificial tears. Each of the 6 groups included 6 test subjects each. Topography images were taken before treatment and weekly for 5 weeks. Diopter measurements were the mean K values and at 3 mm. These values were compared to diopter measurements in laser cross-linked corneas after 1 month and 1 year.

## O=S(=O)([O-])[O-].[Cu+2] [CuSO4, copper (II) sulfate]
rabbits
  corneal haze: no observed corneal haze
  effect on electroretinography (ERG) measurements: no effect
rabbits; histology after 6 weeks
  toxicity in dissected eye tissues: no observed toxicity
Human Keratoconus Cornea
  HHL (histidinyl-hydroxylysinonorleucine) cross-link levels: HHL cross-links are also observed
  LNL (lysinonorleucine) cross-link levels: LNL cross-links were observed
Human Keratoconus Cornea; listed as copper
  HHL (histidinyl-hydroxylysinonorleucine) cross-link levels: significant increase
  LNL (lysinonorleucine) cross-link levels: significant increase
Lysyl oxidase (LOX); keratoconus corneal fibroblast cells
  lox enzyme activity: dramatically increased
Lysyl oxidase (LOX); normal corneal fibroblast cells
  lox enzyme activity: dramatically increased
[1]; after copper sulfate treatment vs untreated (FIG. 4)
  corneal stiffness: marked increase
[1]; at 20 mmHg
  average peak radial strain induced by ocular pulse, treated vs untreated corneas: about 1.5 times lower
[1]; compared with laser cross-linking (FIG. 5)
  corneal biomechanics: comparable to that seen with laser cross-linking
[1]; from radial strain at 20 mmHg, treated vs untreated
  increase in corneal strength: ~50%
[2]
  decrease in diopter measurements vs control groups: greater decrease
